Patent US4291164A, “Cephalosporin analogs and methods for production thereof” (Kyowa Hakko Kogyo Co., Ltd., priority 1978, dated 1981)
Values after ≈ are worked out from the molar mass of the structure shown. Where two headings read alike, the source gives them in different places.

Tests used:
Format in all cases: cell-based
[1] = test system: Staphylococcus aureus 209p; assay: Antibacterial activity, Heart Infusion Agar Dilution Method, Staphylococcus aureus 209p; conditions: pH 7.2, read-out: Minimum Inhibitory Concentration
Description: (§1) The antibacterial activity of the compounds obtained in the above Examples 24, 26, 28, 30, 32, 34, 36, 38, 40 and 41 are determined by Heart Infusion Agar Dilution Method (pH 7.2). Cefazolin is used as a reference.

[2] = test system: Staphylococcus aureus Smith; assay: Antibacterial activity, Heart Infusion Agar Dilution Method, Staphylococcus aureus Smith; conditions: pH 7.2, read-out: Minimum Inhibitory Concentration
Description: as §1

[3] = test system: Staphylococcus epidermidis; assay: Antibacterial activity, Heart Infusion Agar Dilution Method, Staphylococcus epidermidis; conditions: pH 7.2, read-out: Minimum Inhibitory Concentration
Description: as §1

Escherichia coli NIHJC2 = assay: Antibacterial activity, Heart Infusion Agar Dilution Method, Escherichia coli NIHJC2
Description: as §1

Escherichia coli Juhl = assay: Antibacterial activity, Heart Infusion Agar Dilution Method, Escherichia coli Juhl
[4] = test system: Klebsiella pneumoniae 8045; assay: Antibacterial activity, Heart Infusion Agar Dilution Method, Klebsiella pneumoniae 8045; conditions: for MIC: pH 7.2, read-out: Minimum Inhibitory Concentration
Description: as §1

[5] = test system: Klebsiella pneumoniae Y60; assay: Antibacterial activity, Heart Infusion Agar Dilution Method, Klebsiella pneumoniae Y60; conditions: for MIC: pH 7.2, read-out: Minimum Inhibitory Concentration
Serratia marcescens T55 = assay: Antibacterial activity, Heart Infusion Agar Dilution Method, Serratia marcescens T55; conditions: for MIC: pH 7.2, read-out: Minimum Inhibitory Concentration
Proteus mirabilis 1287 = assay: Antibacterial activity, Heart Infusion Agar Dilution Method, Proteus mirabilis 1287; conditions: for MIC: pH 7.2, read-out: Minimum Inhibitory Concentration
Description: as §1

Proteus vulgaris 6897 = assay: Antibacterial activity, Heart Infusion Agar Dilution Method, Proteus vulgaris 6897; conditions: for MIC: pH 7.2, read-out: Minimum Inhibitory Concentration
Description: as §1

Proteus morganii KY4298 = assay: Antibacterial activity, Heart Infusion Agar Dilution Method, Proteus morganii KY4298; conditions: for MIC: Morganella morganii, pH 7.2, read-out: Minimum Inhibitory Concentration
Description: as §1

Proteus rettgeri KY4289 = assay: Antibacterial activity, Heart Infusion Agar Dilution Method, Proteus rettgeri KY4289; conditions: for MIC: Providencia rettgeri, pH 7.2, read-out: Minimum Inhibitory Concentration
Description: as §1

[6] = test system: Pseudomonas aeruginosa 145; assay: Antibacterial activity, Heart Infusion Agar Dilution Method, Pseudomonas aeruginosa 145; conditions: Pseudomonas aeruginosa, 145, pH 7.2; read-out: Minimum Inhibitory Concentration
Description: as §1

Pseudomonas putida F264 = assay: Antibacterial activity, Heart Infusion Agar Dilution Method, Pseudomonas putida F264; conditions: pH 7.2, read-out: Minimum Inhibitory Concentration
Serratia marcescens T26 = assay: Antibacterial activity, Heart Infusion Agar Dilution Method, Serratia marcescens T26; conditions: pH 7.2, read-out: Minimum Inhibitory Concentration
Microorganism = assay: Antimicrobial activity as shown in table (overall statement); conditions: as shown in table below
Description: as §1

[7] = Escherichia coli NIHJC2, Heart Infusion Agar Dilution, pH 7.2, read-out: Minimum Inhibitory Concentration
[8] = Escherichia coli Juhl, Heart Infusion Agar Dilution, pH 7.2, read-out: Minimum Inhibitory Concentration

SMILES	MIC [1] [µg/mL]	MIC [2] [µg/mL]	MIC [3] [µg/mL]	MIC (Escherichia coli NIHJC2; [7]) [µg/mL]	MIC (Escherichia coli Juhl; [8]) [µg/mL]	MIC [4] [µg/mL]	MIC [5] [µg/mL]	MIC (Serratia marcescens T55) [µg/mL]	MIC (Proteus mirabilis 1287) [µg/mL]	MIC (Proteus vulgaris 6897) [µg/mL]	MIC (Proteus morganii KY4298) [µg/mL]	MIC (Proteus rettgeri KY4289) [µg/mL]	MIC [6] [µg/mL]	MIC (Pseudomonas putida F264) [µg/mL]	MIC (Serratia marcescens T26) [µg/mL]	further results
CO/N=C(\C(=O)N[C@@H]1C(=O)N2C(C(=O)O)=C[C@@H](C)C[C@H]12)c1csc(N)n1 (relative stereo) [Example 38, (±)-cis-7β-[2-(2-amino-4-thiazolyl)-2-syn-methoxyiminoacetamido]-4α-methyl-1-azabicyclo[4,2,0]oct-2-en-8-one-2-carboxylic acid]	12.5 (≈ 32.9 µM)	12.5 (≈ 32.9 µM)	12.5 (≈ 32.9 µM)	≤ 0.05	≤ 0.05	≤ 0.05	≤ 0.05	0.1 (≈ 0.264 µM)	≤ 0.05	≤ 0.05	≤ 0.05	≤ 0.05	> 100	≤ 0.05		
CO/N=C(\C(=O)N[C@@H]1C(=O)N2C(C(=O)O)=CCC[C@H]12)c1csc(N)n1 (relative stereo) [Example 40, (±)-cis-7-[2-(2-amino-4-thiazolyl)-2-syn-methoxyiminoacetamido]-1-azabicyclo[4,2,0]oct-2-en-8-on-2-carboxylic acid]	12.5 (≈ 34.2 µM)	12.5 (≈ 34.2 µM)	12.5 (≈ 34.2 µM)	≤ 0.05	≤ 0.05	≤ 0.05	≤ 0.05	≤ 0.05	≤ 0.05	≤ 0.05	≤ 0.05	≤ 0.05	50 (≈ 137 µM)	0.1 (≈ 0.274 µM)	0.78 (≈ 2.13 µM)	
CC(=O)O[C@@H]1C=C(C(=O)O)N2C(=O)[C@@H](NC(=O)Cc3cccs3)[C@H]2C1 (relative stereo) [Example 41, (±)-cis-7β-(2-thienylacetamido)4α-acetoxy-1-azabicyclo[4,2,0]oct-2-en-8-on-2-carboxylic acid]	3.12 (≈ 8.56 µM)	25 (≈ 68.6 µM)	12.5 (≈ 34.3 µM)	100 (≈ 274 µM)	100 (≈ 274 µM)	> 100	25 (≈ 68.6 µM)	> 100	> 100	> 100	> 100	> 100	> 100	> 100	> 100	
N[C@@H](C(=O)NC1C(=O)N2C(C(=O)O)=CCCC12)c1ccccc1 (single isomer, unassigned) [Example 26 A isomer]																Minimum Inhibitory Concentration (Escherichia coli NIHJC2; Escherichia coli NIHJC2, Heart Infusion Agar Dilution, pH 7.2): 50 µg/mL; Minimum Inhibitory Concentration (Escherichia coli Juhl; Escherichia coli Juhl, Heart Infusion Agar Dilution, pH 7.2): 100 µg/mL; Minimum Inhibitory Concentration ([4]; pH 7.2): 50 µg/mL; Minimum Inhibitory Concentration ([5]; pH 7.2): 50 µg/mL; Minimum Inhibitory Concentration (Serratia marcescens T55; pH 7.2): 100 µg/mL; Minimum Inhibitory Concentration (Proteus mirabilis 1287; pH 7.2): 25 µg/mL; Minimum Inhibitory Concentration (Proteus vulgaris 6897; pH 7.2): 25 µg/mL; Minimum Inhibitory Concentration (Proteus morganii KY4298; pH 7.2): 50 µg/mL; Minimum Inhibitory Concentration (Proteus rettgeri KY4289; pH 7.2): 6.25 µg/mL
CCN1CCN(C(=O)NC(C(=O)NC2C(=O)N3C(C(=O)O)=CCCC23)c2ccccc2)C(=O)C1=O (stereo in doubt) [Example 28, (±)-cis-7-[(R)-2-phenyl-2-(4-ethyl-2,3-dioxo-1-piperazinylcarbonylamino)acetamido]-1-azabicyclo[4,2,0]oct-2-en-8-one-2-carboxylic acid]	0.78 (≈ 1.61 µM)	3.12 (≈ 6.45 µM)	3.12 (≈ 6.45 µM)	1.56 (≈ 3.23 µM)	1.56 (≈ 3.23 µM)	< 0.05	25 (≈ 51.7 µM)	3.12 (≈ 6.45 µM)	1.56 (≈ 3.23 µM)	< 0.05	3.12 (≈ 6.45 µM)	6.25 (≈ 12.9 µM)	100 (≈ 207 µM)	6.25 (≈ 12.9 µM)	25 (≈ 51.7 µM)	antimicrobial activity (in words) (Microorganism): strong antimicrobial activity
Cc1nnc(SCC2=C(C(=O)O)N3C(=O)[C@@H](NC(=O)Cn4cnnn4)[C@H]3SC2)s1 [Cefazolin, reference compound]	< 0.05	0.4 (≈ 0.88 µM)	0.78 (≈ 1.72 µM)			0.78 (≈ 1.72 µM)	3.12 (≈ 6.86 µM)	50 (≈ 110 µM)	12.5 (≈ 27.5 µM)	12.5 (≈ 27.5 µM)	> 100	25 (≈ 55 µM)	> 100	> 100	> 100	MIC (Escherichia coli NIHJC2; Escherichia coli, NIHJC2, pH 7.2, read-out: Minimum Inhibitory Concentration): 1.56 µg/mL (≈ 3.43 µM); MIC (Escherichia coli Juhl; Escherichia coli, pH 7.2, read-out: Minimum Inhibitory Concentration): 1.56 µg/mL (≈ 3.43 µM)
N[C@@H](C(=O)N[C@@H]1C(=O)N2C(C(=O)O)=CCC[C@H]12)c1ccccc1 [Example 26 B isomer]	0.4 (≈ 1.27 µM)	6.25 (≈ 19.8 µM)	3.12 (≈ 9.89 µM)	3.12 (≈ 9.89 µM)	3.12 (≈ 9.89 µM)	0.78 (≈ 2.47 µM)	3.12 (≈ 9.89 µM)	12.5 (≈ 39.6 µM)	12.5 (≈ 39.6 µM)	50 (≈ 159 µM)	50 (≈ 159 µM)	12.5 (≈ 39.6 µM)		100 (≈ 317 µM)		antimicrobial activity (in words) (Microorganism): stronger antimicrobial activity than the more polar isomer
